# According to ChEMBL document CHEMBL1201862, “PubChem BioAssay data set” (2004):
# The source made the active and inactive calls.
# Key:
# Streptokinase A = molecular target: T1, Streptokinase A (Streptococcus pyogenes serotype M1, UniProt P10520); test: S. pyogenes streptokinase expression inhibitors, potency, dose response, plasminogen activation absorbance, OD405 (AID 1914); format: functional, Streptococcus pyogenes M1 GAS;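 also: secreted streptokinase activity via plasminogen activation per viability signal from cell pellet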
# T1 sequence (P10520 whole entry): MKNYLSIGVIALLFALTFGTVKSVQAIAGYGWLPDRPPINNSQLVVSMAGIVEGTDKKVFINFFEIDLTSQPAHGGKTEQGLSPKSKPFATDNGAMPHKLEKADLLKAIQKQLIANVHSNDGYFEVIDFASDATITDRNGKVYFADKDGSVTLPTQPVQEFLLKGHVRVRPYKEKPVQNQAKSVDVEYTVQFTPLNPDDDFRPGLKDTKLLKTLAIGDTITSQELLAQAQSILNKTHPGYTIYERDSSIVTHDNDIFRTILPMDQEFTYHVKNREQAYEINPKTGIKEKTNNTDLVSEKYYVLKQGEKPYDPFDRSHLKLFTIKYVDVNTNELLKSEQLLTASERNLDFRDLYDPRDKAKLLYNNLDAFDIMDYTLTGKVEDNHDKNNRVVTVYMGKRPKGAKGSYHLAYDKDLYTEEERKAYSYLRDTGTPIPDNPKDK
# Streptococcus = test: Group A Streptococcus viability loss, dose response, counter-screen for streptokinase expression inhibitor project, luminescence, BacTiterGlo (AID 1915); format: functional, organism-based;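 also: potency for reduction of bacterial viability or growth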
# Melanocortin receptor 4 = Melanocortin receptor 4 (Homo sapiens, UniProt P32245); format: functional, cell-based;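 also: Cell-based assay with luminescence read-out, confirmatory dose-response testing for agonist activity of biased ligands at MC4R; human U2OS cells with tagged receptor and beta-arrestin; potency of agonists that increase receptor coupling to beta-arrestin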
# [1] = molecular target: Female germline-specific tumor suppressor gld-1 (Caenorhabditis elegans, UniProt Q17339); test: inhibitors of GLD-1 binding to TGE RNA, dose response, biochemical, fluorescence polarization, C. elegans (AID 2802);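 also: fluorescence polarization of labeled TGE RNA bound by purified gld-1 protein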
# Caspase-3 = molecular target: T2, Caspase-3 (Homo sapiens, UniProt P42574); test: SAR Analysis of small molecule inhibitors of Sentrin-specific proteases (SENPs) using a Caspase-3 Selectivity assay. [Related pubchem assays (depositor defined):AID2540, AID2599, AID434973, AID489001]; format: functional
# T2 sequence (P42574 whole entry): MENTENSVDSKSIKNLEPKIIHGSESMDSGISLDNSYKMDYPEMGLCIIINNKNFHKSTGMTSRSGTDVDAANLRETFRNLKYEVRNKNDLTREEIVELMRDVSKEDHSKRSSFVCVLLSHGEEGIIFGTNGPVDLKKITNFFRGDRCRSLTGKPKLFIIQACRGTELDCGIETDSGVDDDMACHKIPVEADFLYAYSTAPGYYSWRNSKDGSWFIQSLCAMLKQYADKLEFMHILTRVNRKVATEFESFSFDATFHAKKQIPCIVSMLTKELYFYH
# BJ = test: cells; format: functional, cell-based; settings: Homo sapiens
# Beta-galactosidase = Beta-galactosidase (Escherichia coli, UniProt Q8VNN2); test: beta-galactosidase enzyme inhibitors and activators, dose response, artefact control for CCR6 antagonist project, biochemical, E. coli enzyme, set 3 (AID 504712); format: functional
# [2] = cytotoxicity in HEK-293T cells, dose response, cytotoxicity control for TCR NF-kB inhibitor project, luminescence, T-cell screen hits (AID 489026); format: functional, cell-based;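 also: cells exposed to compound about 14 hours before the viability readout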
# Nonstructural protein 1 = Nonstructural protein 1 (Influenza A virus, UniProt Q194T2); format: functional, Influenza A virus (A/California/07/2009(H1N1))
# INS1 = test: beta cell apoptosis inhibitors, cytokine rescue, dose response, luminescence, retest (AID 449756); format: functional, cell-based; settings: Rattus norvegicus;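 also: cell death triggered by IL-1 beta plus TNF-alpha plus IFN-gamma mixture; protective hits raise ATP signal compared with cytokine alone wells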
# [3] = molecular target: T3, Rac GTPase-activating protein 1 (Homo sapiens, UniProt Q9H0H5); test: MgcRacGAP GTPase-activating activity inhibitors, confirmation, biochemical, ADP Hunter fluorescence, primary and confirmatory (AID 624330); format: functional
# T3 sequence (Q9H0H5 whole entry): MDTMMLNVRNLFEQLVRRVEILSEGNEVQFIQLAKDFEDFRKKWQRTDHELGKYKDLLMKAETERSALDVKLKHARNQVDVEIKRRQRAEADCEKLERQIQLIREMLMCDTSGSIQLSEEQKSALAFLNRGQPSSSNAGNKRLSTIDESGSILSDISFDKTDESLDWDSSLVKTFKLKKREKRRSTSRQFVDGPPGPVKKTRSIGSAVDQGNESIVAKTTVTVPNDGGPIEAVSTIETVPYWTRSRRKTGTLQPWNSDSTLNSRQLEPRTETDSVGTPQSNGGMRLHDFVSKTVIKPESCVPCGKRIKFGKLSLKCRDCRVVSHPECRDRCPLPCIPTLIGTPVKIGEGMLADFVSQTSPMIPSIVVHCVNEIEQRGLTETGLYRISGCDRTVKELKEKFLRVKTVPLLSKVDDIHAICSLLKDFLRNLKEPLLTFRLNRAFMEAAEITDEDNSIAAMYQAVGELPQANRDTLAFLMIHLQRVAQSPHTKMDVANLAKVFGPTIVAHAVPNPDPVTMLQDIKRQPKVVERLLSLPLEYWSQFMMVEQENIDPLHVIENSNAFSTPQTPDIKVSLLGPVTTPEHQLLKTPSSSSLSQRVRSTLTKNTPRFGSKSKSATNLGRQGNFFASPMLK
# SUMO-activating enzyme = SUMO-activating enzyme (Homo sapiens, UniProt Q9UBT2); test: SUMOylation inhibitor hit validation, confirmation, SUMOylation inhibitor project, biochemical, AlphaScreen (AID 2018); format: functional
# [4] = inhibitors of intracellular T. cruzi replication, confirmation, NIH3T3 host cells, beta-gal luminescence (AID 2044); format: functional, cell-based;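 also: intracellular parasites grown in NIH/3T3 mouse fibroblasts as host cells; luminescent beta-galactosidase reporter signal from transgenic T. cruzi replicating inside host cells; inhibitors lower the luminescence signal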
# [5] = Luminescence Cell-Based Dose Retest to Confirm Inhibitors of Cancer Stem Cells. [Related pubchem assays (depositor defined):AID2717, AID2721]; format: functional; settings: Homo sapiens
# Vero = Vero cell cytotoxicity, cytotoxicity control for flavivirus capping enzyme inhibitors (AID 588742); format: functional; settings: Chlorocebus sabaeus
# Melanocortin receptor 4, sequence (P32245 whole entry): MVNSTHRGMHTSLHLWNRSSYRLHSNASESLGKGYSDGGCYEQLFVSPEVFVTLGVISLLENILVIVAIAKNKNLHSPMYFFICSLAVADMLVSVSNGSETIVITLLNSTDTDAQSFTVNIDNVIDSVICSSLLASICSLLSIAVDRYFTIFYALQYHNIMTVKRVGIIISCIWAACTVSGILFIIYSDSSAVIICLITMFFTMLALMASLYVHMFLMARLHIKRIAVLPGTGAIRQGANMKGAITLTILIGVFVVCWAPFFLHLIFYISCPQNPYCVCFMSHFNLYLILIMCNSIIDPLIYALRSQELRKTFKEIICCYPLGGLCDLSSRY
# Female germline-specific tumor suppressor gld-1, sequence (Q17339 whole entry): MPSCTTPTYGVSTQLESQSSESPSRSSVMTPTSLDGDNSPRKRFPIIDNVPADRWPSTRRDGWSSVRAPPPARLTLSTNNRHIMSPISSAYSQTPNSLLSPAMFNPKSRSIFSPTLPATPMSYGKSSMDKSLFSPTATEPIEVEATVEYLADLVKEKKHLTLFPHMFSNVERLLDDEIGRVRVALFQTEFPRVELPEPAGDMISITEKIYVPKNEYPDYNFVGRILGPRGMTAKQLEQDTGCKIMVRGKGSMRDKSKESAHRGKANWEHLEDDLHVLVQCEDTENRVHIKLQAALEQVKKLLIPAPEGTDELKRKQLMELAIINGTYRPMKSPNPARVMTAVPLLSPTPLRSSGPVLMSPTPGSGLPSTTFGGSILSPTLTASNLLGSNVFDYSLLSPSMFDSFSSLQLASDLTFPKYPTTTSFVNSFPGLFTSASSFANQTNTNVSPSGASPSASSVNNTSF
# Nonstructural protein 1, sequence (Q194T2 whole entry): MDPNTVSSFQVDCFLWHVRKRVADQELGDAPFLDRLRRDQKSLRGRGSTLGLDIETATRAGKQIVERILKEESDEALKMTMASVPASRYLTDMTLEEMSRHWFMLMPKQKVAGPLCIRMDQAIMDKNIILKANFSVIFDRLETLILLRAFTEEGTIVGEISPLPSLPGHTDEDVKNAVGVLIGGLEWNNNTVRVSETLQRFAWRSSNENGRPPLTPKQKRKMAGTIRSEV
# Beta-galactosidase, sequence (Q8VNN2 whole entry): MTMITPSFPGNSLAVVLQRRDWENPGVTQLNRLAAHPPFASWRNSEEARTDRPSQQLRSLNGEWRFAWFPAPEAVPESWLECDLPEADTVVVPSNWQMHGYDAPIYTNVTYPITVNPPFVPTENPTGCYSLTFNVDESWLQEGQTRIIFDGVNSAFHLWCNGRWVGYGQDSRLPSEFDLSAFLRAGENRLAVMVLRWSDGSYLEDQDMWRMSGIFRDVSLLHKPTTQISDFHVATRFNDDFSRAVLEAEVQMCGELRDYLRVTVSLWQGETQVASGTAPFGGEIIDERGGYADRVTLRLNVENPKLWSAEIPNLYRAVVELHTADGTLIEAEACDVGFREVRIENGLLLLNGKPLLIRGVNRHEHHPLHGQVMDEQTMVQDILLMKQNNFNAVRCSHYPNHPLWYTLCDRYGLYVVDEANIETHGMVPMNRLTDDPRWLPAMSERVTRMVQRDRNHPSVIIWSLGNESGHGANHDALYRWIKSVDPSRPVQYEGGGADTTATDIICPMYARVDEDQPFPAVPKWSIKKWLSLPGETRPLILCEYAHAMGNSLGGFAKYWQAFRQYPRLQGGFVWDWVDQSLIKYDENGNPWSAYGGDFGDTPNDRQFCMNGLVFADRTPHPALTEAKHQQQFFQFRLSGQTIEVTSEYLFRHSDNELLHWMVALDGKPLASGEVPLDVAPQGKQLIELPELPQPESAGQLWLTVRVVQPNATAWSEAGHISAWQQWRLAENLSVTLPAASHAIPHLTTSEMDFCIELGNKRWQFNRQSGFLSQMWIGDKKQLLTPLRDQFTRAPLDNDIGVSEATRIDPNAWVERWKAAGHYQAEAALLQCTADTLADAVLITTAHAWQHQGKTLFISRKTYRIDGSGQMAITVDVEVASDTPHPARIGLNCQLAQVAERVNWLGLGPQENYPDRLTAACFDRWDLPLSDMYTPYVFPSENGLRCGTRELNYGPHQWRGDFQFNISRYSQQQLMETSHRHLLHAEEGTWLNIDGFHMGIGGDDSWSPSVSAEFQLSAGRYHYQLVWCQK
# SUMO-activating enzyme, sequence (Q9UBE0 whole entry): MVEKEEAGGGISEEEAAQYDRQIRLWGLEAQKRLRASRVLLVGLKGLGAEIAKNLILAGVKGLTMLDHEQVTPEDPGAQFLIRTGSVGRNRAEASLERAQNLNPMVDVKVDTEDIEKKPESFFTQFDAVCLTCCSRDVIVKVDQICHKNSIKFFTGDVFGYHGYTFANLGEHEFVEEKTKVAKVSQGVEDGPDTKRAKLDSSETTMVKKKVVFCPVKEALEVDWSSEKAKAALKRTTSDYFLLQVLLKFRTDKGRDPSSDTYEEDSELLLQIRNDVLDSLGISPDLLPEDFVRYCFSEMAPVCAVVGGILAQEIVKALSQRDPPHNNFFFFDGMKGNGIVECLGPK
# SUMO-activating enzyme, sequence (Q9UBT2 whole entry): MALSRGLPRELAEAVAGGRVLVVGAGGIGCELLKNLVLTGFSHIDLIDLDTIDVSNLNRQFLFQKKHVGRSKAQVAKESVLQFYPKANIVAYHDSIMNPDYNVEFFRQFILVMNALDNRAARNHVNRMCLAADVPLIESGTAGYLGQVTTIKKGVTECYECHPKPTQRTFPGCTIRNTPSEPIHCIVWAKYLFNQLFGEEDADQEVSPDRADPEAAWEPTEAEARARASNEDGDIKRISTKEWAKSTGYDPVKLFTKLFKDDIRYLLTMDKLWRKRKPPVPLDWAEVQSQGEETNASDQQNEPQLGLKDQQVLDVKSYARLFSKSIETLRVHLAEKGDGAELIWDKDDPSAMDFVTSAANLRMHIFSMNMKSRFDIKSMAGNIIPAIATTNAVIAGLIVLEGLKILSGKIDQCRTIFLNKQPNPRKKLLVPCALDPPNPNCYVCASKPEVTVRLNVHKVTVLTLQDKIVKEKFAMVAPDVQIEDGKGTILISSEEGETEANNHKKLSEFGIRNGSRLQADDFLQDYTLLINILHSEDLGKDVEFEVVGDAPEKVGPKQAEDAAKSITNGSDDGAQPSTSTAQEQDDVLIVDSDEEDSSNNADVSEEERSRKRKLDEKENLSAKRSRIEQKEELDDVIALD
structure (smiles),measurement,setting,value
Cc1cccc(C)c1-n1cccc1/C=C1\SC(=S)N(c2cccc(C(=O)O)c2)C1=O,EC50,Streptokinase A,3.8 µM (active)
same,EC50,Streptococcus,8.78 µM (active)
same,EC50,Melanocortin receptor 4,> 89.2 µM (inactive)
Oc1ccc(/C=N/Nc2cc(N3CCCC3)nc(N3CCCC3)n2)cc1,IC50,[1],2.75 µM (active)
same,IC50,Caspase-3,> 99 µM (inactive)
COc1ccc(S(=O)(=O)/N=C2\C=C(Nc3ccc(O)cc3)C(=O)c3ccccc32)cc1,EC50,BJ,3.21 µM (inconclusive)
same,IC50,Beta-galactosidase,43 µM (inactive)
same,IC50,[2],4.19 µM (active)
same,IC50,Nonstructural protein 1,8.09 µM (active)
same,AC50,INS1,0.592 µM (active)
same,IC50,[3],50.7 µM (active)
COc1ccc(/C=N/Nc2cc(N3CCCC3)nc(N3CCCC3)n2)cc1,IC50,SUMO-activating enzyme,0.68 µM (active)
same,EC50,[4],1.71 µM (active)
same,AC50,[5],3.71 µM (active)
same,CC50,Vero,24.7 µM (active)
